Assay results: US5082857A, “Chemical compound” (Kyowa Hakko Kogyo Kabushiki Kaisha, priority 1989, dated 1992)
In brackets after ≈: the same amount, converted by molar mass.

Experiments:
[1] = system: Balb 3T3/H-ras cells; experiment: Growth inhibition against Balb 3T3/H-ras cells (neutral red); type: cell-based; conditions: Mus musculus, BALB/3T3, read-out: IC50 (concentration required for 50% inhibition of the growth of the cells); 72 hours, 37° C.
Method: Into each well of a 96 well microtitre plate was poured a Balb 3T3/H-ras cell suspension (each 0.1 ml), containing 2×10^4 cell/ml and prepared by suspending the cells in medium A. Medium A was prepared by adding to F10 medium (commercial product of Gibco) fetal calf serum (0.1 g/ml), penicillin (100 Unit/ml) and streptomycin (100 μg/ml).
On each occasion, the plate was incubated at a temperature of 37° C. for 20 hours in a carbon dioxide incubator. Then a test sample of DC114-C was suitably diluted with medium A. The diluted sample (0.05 ml) was added to each well, followed by incubation at a temperature of 37° C. for 72 hours in the incubator. After this, the supernatant was removed from the medium. Another medium (each 0.1 ml), prepared by adding to medium A neutral red (0.02%), was added to each well. The cells were dyed by incubation at a temperature of 37° C. for one hour in the incubator.
The supernatant was removed and the residue was washed once with physiological saline. After removal of the dyestuff by using a mixture of 0.001N hydrochloric acid and 30% ethanol, a micro-plate reader was applied to the material to measure the absorbance at 550 nm. The following Table 2 indicates the results obtained by comparing the absorbance of untreated cells with the absorbance of the test sample measured at various concentrations.

[2] = Solubility in various solvents
[3] = system: Enterococcus faecium ATCC 10541; experiment: Anti-bacterial activity, MIC by agar dilution method; type: cell-based; conditions: ATCC10541, pH 7.0, read-out: minimum inhibitory concentration (MIC)
Text: (§1) The following Table 1 indicates minimum inhibitory concentration (MIC) of DC114-C against selected microorganisms, measured by the agar dilution method at pH 7.0.

[4] = system: Klebsiella pneumoniae ATCC 10031; experiment: as above; type: cell-based; conditions: ATCC10031, pH 7.0, read-out: minimum inhibitory concentration (MIC)
Text: as §1

[5] = system: Salmonella typhi ATCC 9992; experiment: as above; type: cell-based; conditions: Salmonella enterica, pH 7.0, read-out: minimum inhibitory concentration (MIC)
Text: as §1

[6] = system: Bacillus subtilis No. 10707; experiment: as above; type: cell-based; conditions: pH 7.0, read-out: minimum inhibitory concentration (MIC)
Text: as §1

[7] = system: Staphylococcus aureus ATCC 6538P; experiment: as above; type: cell-based; conditions: ATCC6538P, pH 7.0, read-out: minimum inhibitory concentration (MIC)
Text: as §1

[8] = system: Sarcoma 180 tumour cells; experiment: Curing effect on Sarcoma 180 tumour cells; type: in vivo, female mice of ddy strain; conditions: i.v., 5 times at 24 h intervals, 10 days after inoculation
Method: As test animals, female mice of ddy strain (body weight about 20 g; each group consisting of 6 mice) were used. 5×10^6 Sarcoma 180 tumour cells were, on each occasion, inoculated into the animal under the skin of the armpit. From the first to 5th days after this, a dose of phosphate-buffered physiological saline (PBS; 0.2 ml) containing a given concentration of DC114-C as shown in Table 3 was intravenously given to the test animal. The administration was effected 5 times with an interval of 24 hours between each. […] 10 days after inoculation, T/C values viz. the ratio of the average volume (mm^3) of the tumours found on the animals treated with the test compounds to the corresponding volume found on the untreated animals were measured and these are shown in the following Table 3.

[9] = in vivo; conditions: mouse, iv

For Cc1cc2c(O)c3c(cc2c2oc(C4(C)OC4C4CO4)cc(=O)c12)C(=O)C1OC1(C1CC(=O)C(O)C(C)O1)C3O (stereo not shown) [DC114-C], the IC50 [1] was 0.06 µg/mL (≈ 0.109 µM), the “Solubility in chloroform, dimethylsulfoxide (DMSO), methanol, ethyl acetate and acetone” value ([2]; chloroform, DMSO, methanol, ethyl acetate, acetone) was “Readily soluble” and the “Solubility in water and n-hexane” value ([2]; water, n-hexane) was “Hardly soluble”. For the same molecule, the MIC [3] was 0.13 µg/mL (≈ 0.236 µM), the MIC [4] was 4.2 µg/mL (≈ 7.63 µM) and the MIC [5] was 8.3 µg/mL (≈ 15.1 µM). For the same molecule, the MIC [6] was 0.26 µg/mL (≈ 0.472 µM), the MIC [7] was 0.07 µg/mL (≈ 0.127 µM) and the “T/C (ratio of average tumour volume, treated to untreated)” value ([8]; 0.78 mg/kg each) was 0.56. For the same molecule, the “T/C (ratio of average tumour volume, treated to untreated)” value ([8]; 1.56 mg/kg each) was 0.48, the “T/C (ratio of average tumour volume, treated to untreated)” value ([8]; 3.13 mg/kg each) was 0.26 and the “T/C (ratio of average tumour volume, treated to untreated)” value ([8]; 6.25 mg/kg each) was 0.15. The LD50 [9] was 17.6 mg/kg.
